Assay results published in PubChem BioAssay AID274 (DTP/NCI, 2004).
Several values for one entry are separate records, joined by “and”; a condition that tells them apart may be missing. Identical values can stand only once. Inconclusive results and toxic doses are left out. Numbered stars: 1 amine (or outer) side, 2 acyl side, 3 side chain; on linkers, the order of the positions; unused ones are H or OH. Bridge positions count the residues as written; N and C are the ends. Square brackets hold non-standard residues; d marks the D form. Peptide text beside a SMILES is read from it. I, II: the chains in the order shown. Actinocin(9to1) = Cc1c2oc3c(C)ccc(C(=O)[*:1])c3nc-2c(C(=O)[*:2])c(N)c1=O; NMeV = CN[CH](C(=O)O)C(C)C; Aze = O=C(O)[CH]1CCN1; Sar = CNCC(=O)O

Tested on: BDF1 mice, Lewis lung carcinoma iv, survival T/C
Experiment: NCI In Vivo Anticancer Drug Screen. Data for tumor model Lewis Lung Carcinoma (intravenous) in B6D2F1 (BDF1) mice
Details: endpoint: median survival time, higher = longer survival
Experimental: The antitumor activity of compounds was measured in mice bearing transplantable tumors. Survival or tumor size were measured and the results are expressed as the measurement made in the treated group (T) divided by the measurement made in the vehicle treated control group (C). The tumor model used in this assay is Lewis Lung Carcinoma (intravenous) in B6D2F1 (BDF1) mice

[1] = dose: 1.0 mg/kg/injection, schedule: Q01DX009 (ip), vehicle: Klucel (hydroxypropylcellulose) (HPC)
[2] = dose: 2.0 mg/kg/injection, schedule: Q01DX009 (ip), vehicle: Klucel (hydroxypropylcellulose) (HPC)
[3] = dose: 32.0 mg/kg/injection, schedule: Q01DX009 (ip), vehicle: Klucel (hydroxypropylcellulose) (HPC)
[4] = dose: 12.5 mg/kg/injection, schedule: Q01DX009 (ip), vehicle: saline with Tween-80
[5] = dose: 25.0 mg/kg/injection, schedule: Q01DX009 (ip), vehicle: saline with Tween-80
[6] = dose: 50.0 mg/kg/injection, schedule: Q01DX009 (ip), vehicle: saline with Tween-80
[7] = dose: 100.0 mg/kg/injection, schedule: Q01DX009 (ip), vehicle: saline with Tween-80
[8] = dose: 0.78 mg/kg/injection, schedule: Q01DX009 (ip), vehicle: saline with Tween-80
[9] = dose: 1.56 mg/kg/injection, schedule: Q01DX009 (ip), vehicle: saline with Tween-80
[10] = dose: 3.12 mg/kg/injection, schedule: Q01DX009 (ip), vehicle: saline with Tween-80
[11] = dose: 6.25 mg/kg/injection, schedule: Q01DX009 (ip), vehicle: saline with Tween-80
[12] = dose: 0.78 mg/kg/injection, schedule: Q01DX009 (ip), vehicle: saline
[13] = dose: 1.56 mg/kg/injection, schedule: Q01DX009 (ip), vehicle: saline
[14] = dose: 12.5 mg/kg/injection, schedule: Q01DX009 (ip), vehicle: saline
[15] = dose: 25.0 mg/kg/injection, schedule: Q01DX009 (ip), vehicle: saline
[16] = dose: 50.0 mg/kg/injection, schedule: Q01DX009 (ip), vehicle: saline
[17] = dose: 100.0 mg/kg/injection, schedule: Q01DX009 (ip), vehicle: saline
[18] = dose: 200.0 mg/kg/injection, schedule: Q01DX009 (ip), vehicle: saline with Tween-80

O=NN(CCCl)C(=O)NC1CCCCC1
T/C [1]: 106 % of control | T/C [2]: 108 % of control | T/C (dose: 4.0 mg/kg/injection, schedule: Q01DX009 (ip), vehicle: Klucel (hydroxypropylcellulose) (HPC)): 120 % of control | T/C (dose: 8.0 mg/kg/injection, schedule: Q01DX009 (ip), vehicle: Klucel (hydroxypropylcellulose) (HPC)): 213 % of control | T/C (dose: 16.0 mg/kg/injection, schedule: Q01DX009 (ip), vehicle: Klucel (hydroxypropylcellulose) (HPC)): 118 % of control | T/C [3]: 93 % of control

O=C1N=C(Oc2ccccc2)SC1=O
T/C [4]: 100 % of control and 109 % of control | T/C [5]: 97 % of control | T/C [6]: 94 % of control and 102 % of control | T/C [7]: 100 % of control

C=CC(C)NC(=S)NNC(=S)NC (stereo not drawn)
T/C (dose: 25.0 mg/kg/injection, schedule: Q01DX009 (ip), vehicle: saline + alcohol): 119 % of control | T/C (dose: 50.0 mg/kg/injection, schedule: Q01DX009 (ip), vehicle: saline + alcohol): 110 % of control | T/C (dose: 100.0 mg/kg/injection, schedule: Q01DX009 (ip), vehicle: saline + alcohol): 107 % of control | T/C (dose: 200.0 mg/kg/injection, schedule: Q01DX009 (ip), vehicle: saline + alcohol): 104 % of control | T/C (dose: 400.0 mg/kg/injection, schedule: Q01DX009 (ip), vehicle: saline + alcohol): 114 % of control

Cn1cnc([N+](=O)[O-])c1Sc1nc(N)nc2c1ncn2C1OC(CO)C(O)C1O (stereo not drawn)
T/C [8]: 97 % of control | T/C [9]: 116 % of control | T/C (dose: 3.13 mg/kg/injection, schedule: Q01DX009 (ip), vehicle: saline with Tween-80): 105 % of control | T/C (dose: 6.25 mg/kg/injection, schedule: Q01DX009 (ip), vehicle: suspension in saline): 107 % of control

CC1=C(/C=C/C(C)=C/C=C/C(C)=C/C=O)C(C)(C)CCC1
T/C (dose: 4.0 mg/kg/injection, schedule: Q01DX005 (ip), vehicle: saline with Tween-80): 96 % of control | T/C (dose: 8.0 mg/kg/injection, schedule: Q01DX005 (ip), vehicle: saline with Tween-80): 96 % of control and 109 % of control | T/C (dose: 16.0 mg/kg/injection, schedule: Q01DX005 (ip), vehicle: saline with Tween-80): 95 % of control and 116 % of control | T/C (dose: 32.0 mg/kg/injection, schedule: Q01DX005 (ip), vehicle: saline with Tween-80): 108 % of control | T/C (dose: 64.0 mg/kg/injection, schedule: Q01DX005 (ip), vehicle: saline with Tween-80): 95 % of control and 96 % of control

O=Cc1ccc(C=O)c(Cl)c1
T/C (dose: 50.0 mg/kg/injection, schedule: Q01DX009 (ip), vehicle: Klucel (hydroxypropylcellulose) (HPC)): 101 % of control | T/C (dose: 100.0 mg/kg/injection, schedule: Q01DX009 (ip), vehicle: Klucel (hydroxypropylcellulose) (HPC)): 100 % of control | T/C (dose: 200.0 mg/kg/injection, schedule: Q01DX009 (ip), vehicle: Klucel (hydroxypropylcellulose) (HPC)): 105 % of control | T/C (dose: 400.0 mg/kg/injection, schedule: Q01DX009 (ip), vehicle: Klucel (hydroxypropylcellulose) (HPC)): 95 % of control

CC(C)(C)N1CC1CNC(=O)C(=O)NCC1CN1C(C)(C)C (stereo not drawn)
T/C [8]: 111 % of control | T/C [9]: 105 % of control | T/C [10]: 98 % of control | T/C [11]: 105 % of control | T/C [4]: 117 % of control

CN(C)C(=O)c1cccc(COc2ccc(N3C(N)=NC(N)=NC3(C)C)cc2Cl)c1
T/C (dose: 0.09 mg/kg/injection, schedule: Q01DX009 (ip), vehicle: saline): 95 % of control | T/C (dose: 0.19 mg/kg/injection, schedule: Q01DX009 (ip), vehicle: saline): 108 % of control | T/C (dose: 0.39 mg/kg/injection, schedule: Q01DX009 (ip), vehicle: saline): 95 % of control | T/C [12]: 101 % of control | T/C [13]: 92 % of control | T/C (dose: 3.12 mg/kg/injection, schedule: Q01DX009 (ip), vehicle: saline): 118 % of control

Nc1ncnc2c1ncn2C1OC(CO)C(O)C1O (stereo not drawn)
T/C [3]: 101 % of control | T/C (dose: 64.0 mg/kg/injection, schedule: Q01DX009 (ip), vehicle: Klucel (hydroxypropylcellulose) (HPC)): 108 % of control | T/C (dose: 128.0 mg/kg/injection, schedule: Q01DX009 (ip), vehicle: Klucel (hydroxypropylcellulose) (HPC)): 97 % of control | T/C (dose: 256.0 mg/kg/injection, schedule: Q01DX009 (ip), vehicle: Klucel (hydroxypropylcellulose) (HPC)): 106 % of control | T/C (dose: 512.0 mg/kg/injection, schedule: Q01DX009 (ip), vehicle: Klucel (hydroxypropylcellulose) (HPC)): 87 % of control

COc1ccc(C(Cn2ccnc2)Sc2ccc(Cl)c(Cl)c2)cc1 (stereo not drawn)
T/C [11]: 95 % of control | T/C [4]: 97 % of control | T/C [5]: 96 % of control | T/C [6]: 100 % of control

ClCC[Se](Cl)(Cl)c1ccccc1
T/C [12]: 98 % of control | T/C [13]: 109 % of control | T/C (dose: 3.0 mg/kg/injection, schedule: Q01DX009 (ip), vehicle: saline): 114 % of control

C[C@]12CC[C@H]3[C@@H](CC[C@]4(O)C[C@@H](O)CC[C@]34C=O)[C@@]1(O)CC[C@@H]2C1=CC(=O)OC1
T/C [14]: 96 % of control | T/C [15]: 108 % of control | T/C [16]: 108 % of control | T/C [17]: 100 % of control

CN1c2ccc3ccccc3c2Sc2ccc3ccccc3c21
T/C [7]: 98 % of control | T/C [18]: 98 % of control | T/C (dose: 400.0 mg/kg/injection, schedule: Q01DX009 (ip), vehicle: saline with Tween-80): 111 % of control

CC(=O)O[C@@H]1[C@@H](O)C2=C3[C@]4(C)[C@@H]1C(C)(C)C(=O)C[C@@H]4[C@]3(O)[C@H](OC(C)=O)[C@@]1(C[C@@H]1C)C2=O
T/C [10]: 97 % of control | T/C [11]: 195 % of control | T/C [4]: 162 % of control

Cc1c2oc3c(C)ccc(C(=O)NC4C(=O)NC(C(C)C)C(=O)N5CCC5C(=O)N(C)CC(=O)N(C)C(C(C)C)C(=O)OC4C)c3nc-2c(C(=O)NC2C(=O)NC(C(C)C)C(=O)N3CCC3C(=O)N(C)CC(=O)N(C)C(C(C)C)C(=O)OC2C)c(N)c1=O (stereo not drawn) (I: TV[Aze][Sar][NMeV] / II: TV[Aze][Sar][NMeV]; ester I:1-I:C, II:1-II:C; linker I:N-II:N via Actinocin(9to1); configuration not given here)
T/C (dose: 194.0 micrograms/kg/injection, schedule: Q04DX003 (ip), vehicle: saline + alcohol): 87 % of control | T/C (dose: 270.0 micrograms/kg/injection, schedule: Q04DX003 (ip), vehicle: saline + alcohol): 94 % of control | T/C (dose: 324.0 micrograms/kg/injection, schedule: Q04DX003 (ip), vehicle: saline + alcohol): 95 % of control | T/C (dose: 450.0 micrograms/kg/injection, schedule: Q04DX003 (ip), vehicle: saline + alcohol): 95 % of control | T/C (dose: 540.0 micrograms/kg/injection, schedule: Q04DX003 (ip), vehicle: saline + alcohol): 109 % of control | T/C (dose: 648.0 micrograms/kg/injection, schedule: Q01DX001 (ip), vehicle: saline + alcohol): 97 % of control | T/C (dose: 750.0 micrograms/kg/injection, schedule: Q04DX003 (ip), vehicle: saline + alcohol): 108 % of control | T/C (dose: 1080.0 micrograms/kg/injection, schedule: Q01DX001 (ip), vehicle: saline + alcohol): 98 % of control

CC(C)CCCCCCCCCCCCC(=O)NCC(=O)NC1C(O)C(O)C(Nc2ncnc3nc[nH]c23)OC1C(O)CO (stereo not drawn)
T/C (dose: 0.25 mg/kg/injection, schedule: Q01DX009 (ip), vehicle: Klucel (hydroxypropylcellulose) (HPC)): 102 % of control | T/C [1]: 90 % of control | T/C [2]: 93 % of control

Cc1oc2c(C)c3oc(=O)cc(C)c3cc2c1CCl
T/C [4]: 102 % of control | T/C [5]: 101 % of control | T/C [6]: 95 % of control

C[Si](C)(C)O/C=C1/CCOC1=O
T/C [14]: 116 % of control | T/C [15]: 101 % of control | T/C [16]: 107 % of control | T/C [17]: 108 % of control | T/C (dose: 200.0 mg/kg/injection, schedule: Q01DX009 (ip), vehicle: saline): 93 % of control | T/C (dose: 400.0 mg/kg/injection, schedule: Q01DX009 (ip), vehicle: saline): 99 % of control

CCOC(C)C(/C=N/NC(N)=S)=NNC(N)=S (stereo not drawn)
T/C [4]: 157 % of control | T/C [5]: 95 % of control | T/C [6]: 104 % of control | T/C [18]: 114 % of control

COc1cc2cc3cc4cc(OC)c(OC)cc4c(C)[n+]3cc2cc1OC (tested in a mixture with another compound)
T/C (dose: 6.25 mg/kg/injection, schedule: Q01DX009 (ip), vehicle: saline): 104 % of control | T/C [14]: 106 % of control | T/C [15]: 107 % of control | T/C [16]: 111 % of control

C(COCCOCC1CO1)OCCOCC1CO1 (stereo not drawn)
T/C [5]: 107 % of control | T/C [6]: 104 % of control | T/C [7]: 98 % of control | T/C [18]: 112 % of control
